Source: US20200315231A1, “CO-C[…]” (NESTES S,A,, priority 2016, published 2020)

Experiment: Water uptake behavior study in powder matrices at 33% Relative Humidity
Format: physicochemical
Conditions: all samples tested (maltodextrin, skimmed milk powder, full cream milk powder, growing up milk powder), co-crystal 7.6% by weight, 22 days, versus equivalent dry-mix CaCl2.2 H2O+sucrose
Method: The water uptake behavior was studied for the co-crystal of Sucrose.CaCl2.4 H2O in four different powder matrices: Maltodextrin (FIG. 5), skimmed milk powder (FIG. 6), full cream milk powder with 26% fat (FIG. 7), and powdered “growing up milk” (Nestlé BEBA3) (FIG. 8). For each matrix, three different calcium containing material were mixed into the powder to simulate calcium fortification. Powders were stored in a desiccator at 33% Relative Humidity over 22 days. The water uptake was measured every 3-4 days by tracking the weight change. The water uptake is shown in FIGS. 5 to 8): powder matrix alone (♦), powder matrix with CaCl2. 2 H2O (2.1% by weight): 13.59 g of matrix+290 mg of CaCl2.2 H2O (●), powder matrix with co-crystalline Sucrose.CaCl2.4 H2O (7.6% by weight): 13.59 g of matrix+1.04 g of co-crystal (▴), and powder matrix with the equivalent dry-mix: 13.59 g of matrix+290 mg of CaCl2.2 H2O+670 mg of sucrose (▪).

## O.O.O.O.OC[C@H]1O[C@@](CO)(O[C@H]2O[C@H](CO)[C@@H](O)[C@H](O)[C@H]2O)[C@@H](O)[C@@H]1O.[Ca+2].[Cl-].[Cl-] [co-crystal, Sucrose.CaCl2.4 H2O]
  water uptake (weight change) compared with the dry mix: lower for the co-crystal than for the dry mix
